According to the supplement of paper PMC11451515:

What was measured:
Conditions in all cases: 48 h
[1] = system: SEM cells; assay: AUC of viability dose-response curve (% viability x log10 dose units); higher = less sensitive
Procedure, shortened: (§1)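 Leukemia cells adapted to each medium (500 or 1000 cells/well, 1536-well plates) were exposed to library compounds in DMSO for 48 h at 37°C at 11 threefold doses, 47 μM to 0.79 nM. Luminescence by CellTiter-Glo One was normalised per plate to DMSO and cell-free wells, then fitted with a four-parameter log-logistic curve on log10 dose. Curves above full viability were scaled and quality-control failures removed before area under the curve was integrated by trapezoidal rule.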

[2] = system: NOMO1; assay: as above
Procedure, shortened: as §1

[3] = system: P12-Ichikawa; assay: as above
Procedure, shortened: as §1

[4] = system: SEM cells; assay: cell viability relative to DMSO control; higher = less cytotoxic
Procedure, shortened: (§2)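 In 1536-well plates, 5 μl of leukemia cells were seeded per well: 500 cells/well for NOMO1 or SEM and 1000 cells/well for P12-Ichikawa. Each line had first been adapted for at least four passages in each medium. Library compounds in DMSO were pin-dosed at 11 threefold concentrations between 47 μM and 0.79 nM, and CellTiter-Glo One luminescence was read after 48 h at 37°C. Viability is a per-plate percentage relative to DMSO wells, with cell-free wells as background.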

[5] = system: NOMO1; assay: as above
Procedure, shortened: as §2

[6] = system: P12-Ichikawa; assay: as above
Procedure, shortened: as §2

C/C=C/C[C@@H](C)C(=O)[C@H]1C(=O)N[C@@H](C(C)C)C(=O)N(C)CC(=O)N(C)[C@@H](CC(C)C)C(=O)N[C@@H](C(C)C)C(=O)N(C)[C@@H](CC(C)C)C(=O)N[C@@H](C)C(=O)N[C@H](C)C(=O)N(C)[C@@H](CC(C)C)C(=O)N(C)[C@@H](CC(C)C)C(=O)N(C)[C@@H](C(C)C)C(=O)N1C
AUC of viability dose-response curve
Conditions	[1]	[2]	[3]
HPLM + 10% dialyzed FBS	427	441	424
RPMI 5 mM glucose + 10% FBS	406	466	413
RPMI 5 mM glucose + 10% dialyzed FBS	424	461	411

[4], RPMI 5 mM glucose + 10% dialyzed FBS
Conditions	cell viability [%]
0.000781 µM	125
0.00234 µM	125
0.00702 µM	108
0.0211 µM	151
0.0632 µM	131
0.19 µM	120
0.569 µM	123
1.71 µM	108
5.12 µM	108
15.4 µM	71.6
46.1 µM	23.7

CCCC1=NC(=C2[N]1NC(=N\C2=O)/C3=CC(=CC=C3OCC)[S+]([O-])(=O)N4CCN(CC)CC4)C
AUC of viability dose-response curve
Conditions	[1]	[2]	[3]
HPLM + 10% dialyzed FBS	417	402	421
RPMI 5 mM glucose + 10% FBS	407	409	402
RPMI 5 mM glucose + 10% dialyzed FBS	401	406	399

[4], RPMI 5 mM glucose + 10% dialyzed FBS
Conditions	cell viability [%]
0.000781 µM	125
0.00234 µM	115
0.00702 µM	128
0.0211 µM	131
0.0632 µM	143
0.19 µM	134
0.569 µM	140
1.71 µM	145
5.12 µM	106
15.4 µM	10.4
46.1 µM	6.51

CC(=O)O[C@H]1C(=O)[C@]2(C)[C@@H](O)C[C@H]3OC[C@@]3(OC(C)=O)C2[C@H](OC(=O)C4=CC=CC=C4)[C@]5(O)C[C@H](OC(=O)[C@H](O)[C@@H](NC(=O)C6=CC=CC=C6)C7=CC=CC=C7)\C(=C1/C5(C)C)C (some centres not stated)
[3]
Conditions	AUC of viability dose-response curve
HPLM + 10% dialyzed FBS	148
RPMI 5 mM glucose + 10% FBS	143
RPMI 5 mM glucose + 10% dialyzed FBS	195

cell viability [%]
Conditions	[4]	[5]	[6]
HPLM + 10% dialyzed FBS, 0.000781 µM	81.5	74.6	93.3
HPLM + 10% dialyzed FBS, 0.00234 µM	50	34.7	42.1
HPLM + 10% dialyzed FBS, 0.00702 µM	31.7	39.5	35.2
HPLM + 10% dialyzed FBS, 0.0211 µM	27.9	41.3	27.6
HPLM + 10% dialyzed FBS, 0.0632 µM	27.8	39.6	31.9
HPLM + 10% dialyzed FBS, 0.19 µM	26.4	31.7	27.8
HPLM + 10% dialyzed FBS, 0.569 µM	26.8	33.1	25.7
HPLM + 10% dialyzed FBS, 1.71 µM	24.1	36.6	27.1
HPLM + 10% dialyzed FBS, 5.12 µM	26.8	35.5	25
HPLM + 10% dialyzed FBS, 15.4 µM	22.6	29.1	19.1
HPLM + 10% dialyzed FBS, 46.1 µM	25.9	33.1	15.3
RPMI 5 mM glucose + 10% FBS, 0.000781 µM	59.1	124	88.3
RPMI 5 mM glucose + 10% FBS, 0.00234 µM	30.5	27.4	48
RPMI 5 mM glucose + 10% FBS, 0.00702 µM	22.3	23	34.3
RPMI 5 mM glucose + 10% FBS, 0.0211 µM	17	25.4	24
RPMI 5 mM glucose + 10% FBS, 0.0632 µM	16.2	25.4	26.1
RPMI 5 mM glucose + 10% FBS, 0.19 µM	14.2	22.5	24.8
RPMI 5 mM glucose + 10% FBS, 0.569 µM	16.3	23.2	27.8
RPMI 5 mM glucose + 10% FBS, 1.71 µM	15.7	23.9	23
RPMI 5 mM glucose + 10% FBS, 5.12 µM	15.6	23.1	26
RPMI 5 mM glucose + 10% FBS, 15.4 µM	15.6	23.2	19.3
RPMI 5 mM glucose + 10% FBS, 46.1 µM	13.5	19.6	14.3
RPMI 5 mM glucose + 10% dialyzed FBS, 0.000781 µM	81.3	106	95.8
RPMI 5 mM glucose + 10% dialyzed FBS, 0.00234 µM	48.1	32.5	58.3
RPMI 5 mM glucose + 10% dialyzed FBS, 0.00702 µM	35.2	25.2	41.4
RPMI 5 mM glucose + 10% dialyzed FBS, 0.0211 µM	26.3	31.5	31.5
RPMI 5 mM glucose + 10% dialyzed FBS, 0.0632 µM	24.2	24.8	37.7
RPMI 5 mM glucose + 10% dialyzed FBS, 0.19 µM	23.3	26	39.7
RPMI 5 mM glucose + 10% dialyzed FBS, 0.569 µM	22.8	29.7	35.9
RPMI 5 mM glucose + 10% dialyzed FBS, 1.71 µM	22.3	31.4	38.8
RPMI 5 mM glucose + 10% dialyzed FBS, 5.12 µM	22.4	29	37.7
RPMI 5 mM glucose + 10% dialyzed FBS, 15.4 µM	23.9	27.1	31.9
RPMI 5 mM glucose + 10% dialyzed FBS, 46.1 µM	22.3	20.3	25.9
